Source: patent US4758557A, “Cephalosporin derivatives and bactericides containing the same” (Meiji Seika Kaisha, Ltd., priority 1985, dated 1988)
In brackets after ≈: the same amount, converted by molar mass.

What was measured:
Assay in all cases: MIC in agar plate culture-dilution assay
Assay type in all cases: cell-based
Proteus rettgeri GN-624 = settings: Providencia rettgeri, GN624; Proteus rettgeri GN-624; agar plate culture-dilution; read-out: MIC
Source text: (§1) The compounds of the formula (I) and salts thereof of the present invention are new, and have high and broad antibacterial activity capable of inhibiting the growth of pathogenic microorganisms of a broad range including gram-positive and gram-negative bacteria. In order to show the usability of the compounds of the formula (I), the antibacterial activity of some typical compounds of the formula (I) was actually measured, and the results are given in the following Table-1.
(§2) MIC in agar plate culture-dilution assay (Y/ml)

Proteus vulgaris GN-76 = settings: GN76; Proteus vulgaris GN-76; agar plate culture-dilution; read-out: MIC
Source text: as §1, §2

[1] = system: Pseudomonas aeruginosa IAM-1007; settings: IAM1007; Pseudomonas aeruginosa IAM-1007; agar plate culture-dilution; read-out: MIC
Source text: as §1, §2

[2] = system: Staphylococcus aureus Smith (1); settings: Staphylococcus aureus Smith (1); agar plate culture-dilution; read-out: MIC
Source text: as §1, §2

[3] = system: Enterobacter cloacae GN-7471; settings: GN7471; Enterobacter cloacae GN-7471; agar plate culture-dilution; read-out: MIC
Source text: as §1, §2

[4] = system: Klebsiella pneumoniae GN-69; settings: GN69; Klebsiella pneumoniae GN-69; agar plate culture-dilution; read-out: MIC
Source text: as §1, §2

[5] = system: Serratia marcescens No. 1; settings: Serratia marcescens No. 1; agar plate culture-dilution; read-out: MIC
Source text: as §1, §2

[6] = system: Citrobacter freundii GN-346; settings: GN346; Citrobacter freundii GN-346; agar plate culture-dilution; read-out: MIC
Source text: as §1, §2

[7] = system: Bacillus subtilis ATCC 6633; settings: ATCC6633; Bacillus subtilis ATCC 6633; agar plate culture-dilution; read-out: MIC
Source text: as §1, §2

[8] = system: Escherichia coli NIHJ JC-2; settings: NIHJJC2
Source text: as §1, §2

[9] = system: Pseudomonas aeruginosa M-0148; settings: M0148; Pseudomonas aeruginosa M-0148; agar plate culture-dilution; read-out: MIC
Source text: as §1, §2

[10] = system: Pseudomonas maltophilia M-0627; settings: Stenotrophomonas maltophilia, M0627; Pseudomonas maltophilia M-0627; agar plate culture-dilution; read-out: MIC
Source text: as §1, §2

[11] = system: Pseudomonas aeruginosa E-2; settings: E2; Pseudomonas aeruginosa E-2; agar plate culture-dilution; read-out: MIC
Source text: as §1, §2

[12] = system: Staphylococcus aureus 209P JC-1; settings: Staphylococcus aureus 209P JC-1; agar plate culture-dilution; read-out: MIC
Source text: as §1, §2

Row | MIC (Proteus rettgeri GN-624) [µg/mL] | MIC (Proteus vulgaris GN-76) [µg/mL] | MIC [1] [µg/mL] | MIC [2] [µg/mL] | MIC [3] [µg/mL] | MIC [4] [µg/mL] | MIC [5] [µg/mL] | MIC [6] [µg/mL] | MIC [7] [µg/mL] | MIC [8] [µg/mL] | MIC [9] [µg/mL] | MIC [10] [µg/mL] | MIC [11] [µg/mL] | MIC [12] [µg/mL] | SMILES
1 | 3.13 (≈ 4.9 µM) | 0.1 (≈ 0.157 µM) | 0.1 (≈ 0.157 µM) | 6.25 (≈ 9.79 µM) | 6.25 (≈ 9.79 µM) | 0.05 (≈ 0.0783 µM) | 0.2 (≈ 0.313 µM) | 0.78 (≈ 1.22 µM) | 3.13 (≈ 4.9 µM) | 0.05 (≈ 0.0783 µM) | 0.2 (≈ 0.313 µM) | 1.56 (≈ 2.44 µM) | 0.05 (≈ 0.0783 µM) | 3.13 (≈ 4.9 µM) | Nc1nc(C(NC(=O)c2cc(=O)c(O)cn2O)C(=O)N[C@@H]2C(=O)N3C(C(=O)O)=C(CSc4cnns4)CS[C@H]23)cs1 (stereo partly drawn) [Example 25, (6R,7R)7-[(RS)2-(2-Aminothiazol-4-yl)-2-(1,5-dihydroxy-4-pyridone-2-carboxamido)acetamido]-3-(1,2,3-thiadiazol-5-yl)thiomethyl-ceph-3-em-4-carboxylic acid]
2 | 3.13 (≈ 4.55 µM) | 0.2 (≈ 0.291 µM) | 0.2 (≈ 0.291 µM) | 3.13 (≈ 4.55 µM) | 1.56 (≈ 2.27 µM) | 0.05 (≈ 0.0727 µM) | 0.78 (≈ 1.13 µM) | 0.39 (≈ 0.567 µM) | 3.13 (≈ 4.55 µM) | 0.1 (≈ 0.145 µM) | 0.2 (≈ 0.291 µM) | 3.13 (≈ 4.55 µM) | 0.05 (≈ 0.0727 µM) | 3.13 (≈ 4.55 µM) | Nc1nc(C(NC(=O)c2cc(=O)c(O)cn2O)C(=O)N[C@@H]2C(=O)N3C(C(=O)O)=C(CSc4nc5ccccc5s4)CS[C@H]23)cs1 (stereo partly drawn) [Example 26, (6R,7R)7-[(RS)2-(2-Aminothiazol-4-yl)-2-(1,5-dihydroxy-4-pyridone-2-carboxamido)acetamido]-3-(benzothiazol-2-yl)thiomethyl-ceph-3-em-4-carboxylic acid]
